From patent US20160257697A1, “THIOPHENE-SUBSTITUTED TETRACYCLIC COMPOUNDS AND METHODS OFUSE THEREOF FOR THE TREATMENT OF VIRAL DISEASES” (priority 2013, published 2016)
Where two headings read alike, the source gives them in different places.

What was measured:
Test in all cases: microbe, parasite or virus in culture
Format in all cases: cell-based, Hepatitis C virus (HCV)
[1] = test system: HCV replicon 1AY93H; settings: Replicon Assay A
Method in brief: (§1)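 Replicon cells incubated with compound for 3 days in medium with 5% FBS and 0.5% DMSO final. Replicon RNA measured in lysates by multiplex real-time RT-PCR (Neo set) against cyclophilin control, quantified from standard curves of Ct versus log ng replicon total RNA.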

[2] = test system: HCV replicon 1A; settings: Replicon Assay A
Method in brief: as §1

[3] = test system: HCV replicon 2B; settings: Replicon Assay A
Method in brief: as §1

[4] = test system: HCV replicon 1AQ30D; settings: Replicon Assay B
[5] = test system: HCV replicon 1B; settings: Replicon Assay B
[6] = read-out: 1A Y93H IC50, HCV replicon 1A Y93H
[7] = read-out: 2B IC50, HCV replicon 2B
[8] = read-out: 1A Q30D IC50, HCV replicon 1A Q30D
[9] = Hepatitis C virus, HCV replicon 1B
[10] = Hepatitis C virus, read-out: 1A Y93H IC50 (nM), replicon 1AY93H
[11] = Hepatitis C virus, read-out: 2B IC50 (nM), replicon 2B
[12] = Hepatitis C virus, read-out: 1A Q30D IC50 (nM), replicon 1AQ30D
[13] = HCV replicon 1A Y93H, read-out: 1A Y93H IC50
[14] = HCV replicon 2B, read-out: 2B IC50
[15] = HCV replicon 1A Q30D, read-out: 1A Q30D IC50
[16] = read-out: 1A Y93H IC50, replicon 1AY93H

SMILES	IC50 ([2]; HCV replicon 1A)	IC50 [1, 10]	IC50 ([2]; Hepatitis C virus, replicon 1A)	IC50 [3, 11]	IC50 [4, 12]	IC50 ([5]; Hepatitis C virus, replicon 1B)	IC50 ([5]; HCV replicon 1B)	other results
COCCc1ccc(C2Oc3cc(-c4cnc([C@@H]5CCCN5C(=O)[C@@H](NC(=O)OC)C(C)C)[nH]4)cc(F)c3-c3cc4cc(-c5cnc([C@@H]6CCCN6C(=O)[C@@H](NC(=O)OC)C(C)C)[nH]5)ccc4n32)s1 (single isomer, unassigned) [Compound 82]								IC50 ([1]; replicon 1AY93H, read-out: 1A Y93H IC50): 0.014 nM; IC50 ([2]; replicon 1A): 1.1 pM; IC50 ([3]; replicon 2B, read-out: 2B IC50): 0.15 nM; IC50 ([4]; replicon 1AQ30D, read-out: 1A Q30D IC50): 0.26 nM; IC50 ([5]; replicon 1B): 1.3 pM
COC(=O)NC(C(=O)N1[C@@H]2C[C@@H]2C[C@H]1c1ncc(-c2ccc3c(c2)c(F)c2n3C(c3ccc(C4CC4)s3)Oc3cc(-c4cnc([C@@H]5CCCN5C(=O)[C@@H](NC(=O)OC)C(C)C)[nH]4)ccc3-2)[nH]1)C1C[C@@H](C)O[C@@H](C)C1 (single isomer, unassigned) [Compound 644]	2.57 pM							IC50 [1, 6]: 0.005 nM; IC50 [3, 7]: 0.0272 nM; IC50 [4, 8]: 0.0889 nM; IC50 [5, 9]: 1.3 pM
COC(=O)N[C@H](C(=O)N1CCC[C@H]1c1ncc(-c2cc(F)c3c(c2)OC(c2ccc(C4CC4)s2)n2c-3cc3cc(-c4cnc([C@@H]5CCCN5C(=O)[C@@H](NC(=O)OC)C5C[C@@H](C)O[C@@H](C)C5)[nH]4)ccc32)[nH]1)C1C[C@@H](C)O[C@@H](C)C1 (stereo partly shown) [Compound 303]		0.002 nM	2.6 pM	0.003 nM	0.008 nM	1.3 pM		
COC(=O)NC(C(=O)N1CCC[C@H]1c1ncc(-c2ccc3c(c2)cc2n3C(c3ccc(C(F)(F)F)s3)Oc3cc(-c4cnc([C@@H]5CCCN5C(=O)[C@@H](NC(=O)OC)C(C)C)[nH]4)cc(F)c3-2)[nH]1)C1C[C@@H](C)O[C@@H](C)C1 (single isomer, unassigned) [Compound 649]	2 pM						1.2 pM	IC50 [1, 13]: 0.24 nM; IC50 [3, 14]: 0.253 nM; IC50 [4, 15]: 0.41 nM
COC(=O)N[C@H](C(=O)N1CCC[C@H]1c1ncc(-c2cc(F)c3c(c2)OC(c2ccc(C(C)C)s2)n2c-3cc3cc(-c4cnc([C@@H]5CCCN5C(=O)[C@@H](NC(=O)OC)C(C)C)[nH]4)ccc32)[nH]1)C(C)C (single isomer, unassigned) [Compound 35]		0.62 nM	1.7 pM	1.43 nM	11.5 nM	1.4 pM		
COC(=O)NC(C(=O)N1CCC[C@H]1c1ncc(-c2ccc3c(c2)cc2n3C(c3ccc(C4CCCC4)s3)Oc3cc(-c4cnc([C@@H]5CCCN5C(=O)[C@@H](NC(=O)OC)C(C)C)[nH]4)cc(F)c3-2)[nH]1)C1C[C@@H](C)O[C@@H](C)C1 (single isomer, unassigned) [Compound 657]	2.5 pM						3.7 pM	IC50 [1, 6]: 0.105 nM; IC50 [3, 7]: 0.0941 nM; IC50 [4, 8]: 1.14 nM
COC(=O)N[C@H](C(=O)N1CCC[C@H]1c1ncc(-c2cc(F)c3c(c2)OC(c2ccc(C4(O)CC4)s2)n2c-3cc3cc(-c4cnc([C@@H]5CCCN5C(=O)[C@@H](NC(=O)OC)C(C)C)[nH]4)ccc32)[nH]1)C(C)C (single isomer, unassigned) [Compound 60]		0.014 nM	1.5 pM	0.023 nM	0.35 nM	1.3 pM		
COC(=O)N[C@H](C(=O)N1CCC[C@H]1c1ncc(-c2cc(F)c3c(c2)OC(c2ccc(C4CC4)s2)n2c-3cc3cc(-c4cnc([C@@H]5CCCN5C(=O)[C@@H](NC(=O)OC)C5CCOCC5)[nH]4)ccc32)[nH]1)C(C)C (stereo partly shown) [Compound 127]		0.002 nM	2 pM	0.003 nM	0.02 nM	2.8 pM		
COC(=O)N[C@H](C(=O)N1CCC[C@H]1c1nc(-c2cc(F)c3c(c2)OC(c2ccc(C)s2)n2c-3cc3cc(-c4cnc([C@@H]5CCCN5C(=O)[C@@H](NC(=O)OC)C5CCOCC5)[nH]4)ccc32)c[nH]1)C(C)C (stereo partly shown) [Compound 58]		0.002 nM	1.4 pM	0.011 nM		3.4 pM		IC50 ([4]; read-out: 1A Q30D IC50, replicon 1AQ30D): 0.041 nM
COC(=O)NC(C(=O)N1CCC[C@H]1c1ncc(-c2ccc3c(c2)cc2n3C(c3ccc(C4CC4)s3)Oc3cc(-c4cnc([C@@H]5CCCN5C(=O)[C@@H](NC(=O)OC)C(C)C)[nH]4)cc(F)c3-2)[nH]1)C1C[C@H](C)O[C@@H](C)C1 (single isomer, unassigned) [Compound 403]			2.5 pM		0.0703 nM	3.3 pM		IC50 [1, 16]: 0.0067 nM; IC50 ([3]; read-out: 2B IC50, replicon 2B): 0.007 nM
COC(=O)NC(C(=O)N1CCC[C@H]1c1ncc(-c2ccc3c(c2)cc2n3C(c3ccc(C4CC4)s3)Oc3cc(-c4cnc([C@@H]5CCCN5C(=O)[C@@H](NC(=O)OC)C(C)C)[nH]4)cc(F)c3-2)[nH]1)C1CN(C(=O)OC)C1 (single isomer, unassigned) [Compound 226]			2.6 pM		0.13 nM	3.6 pM		IC50 [1, 16]: 0.009 nM; IC50 ([3]; read-out: 2B IC50, replicon 2B): 0.025 nM
COC(=O)NC(C(=O)N1[C@@H]2C[C@@H]2C[C@H]1c1ncc(-c2ccc3c(c2)cc2n3C(c3ccc(CC4CC4)s3)Oc3cc(-c4cnc([C@@H]5CCCN5C(=O)[C@@H](NC(=O)OC)C(C)C)[nH]4)cc(F)c3-2)[nH]1)C1CCOC(C)(C)C1 (single isomer, unassigned) [Compound 417]	3.4 pM						6 pM	IC50 [1, 6]: 0.119 nM; IC50 [3, 7]: 0.0098 nM; IC50 [4, 8]: 0.0738 nM
COC(=O)N[C@H](C(=O)N1CCC[C@H]1c1ncc(-c2cc(F)c3c(c2)OC(c2cc4c(s2)CCC4)n2c-3cc3cc(-c4cnc([C@@H]5C[C@H]6C[C@H]6N5C(=O)[C@@H](NC(=O)OC)C5C[C@@H](C)O[C@@H](C)C5)[nH]4)ccc32)[nH]1)C(C)C (single isomer, unassigned) [Compound 551]	6.29 pM						7.91 pM	IC50 [1, 6]: 0.0167 nM; IC50 [3, 7]: 0.0847 nM; IC50 [4, 8]: 0.172 nM
COC(=O)NC(C(=O)N1CCC[C@H]1c1ncc(-c2ccc3c(c2)cc2n3C(c3ccc(C(F)(F)F)s3)Oc3cc(-c4cnc([C@@H]5CCCN5C(=O)[C@@H](NC(=O)OC)C(C)C)[nH]4)cc(F)c3-2)[nH]1)C1C[C@@H](C)O[C@@H](C)C1 (stereo partly shown) [Compound 650]								IC50 ([1]; Hepatitis C virus, read-out: 1A Y93H IC50, HCV replicon 1A Y93H): 0.0057 nM; IC50 ([2]; Hepatitis C virus, HCV replicon 1A): 2 pM; IC50 ([3]; Hepatitis C virus, read-out: 2B IC50, HCV replicon 2B): 0.005 nM; IC50 ([4]; Hepatitis C virus, read-out: 1A Q30D IC50, HCV replicon 1A Q30D): 0.0458 nM; IC50 [5, 9]: 1.4 pM
COC(=O)NC(C(=O)N1CCCC1c1ncc(-c2cc(F)c3c(c2)OC(c2cc4c(s2)CC(C)(C)C4)n2c-3cc3cc(-c4cnc(C5CCCN5C(=O)C(NC(=O)OC)C(C)C)[nH]4)ccc32)[nH]1)C(C)C (mixture of isomers) [Compound 846]	2.9 pM						2.8 pM	IC50 [1, 13]: 0.034 nM; IC50 [3, 14]: 0.039 nM; IC50 [4, 15]: 0.302 nM
COC(=O)N[C@H](C(=O)N1CCC[C@H]1c1ncc(-c2cc(C)c3c(c2)OC(c2ccc(C4CC4)s2)n2c-3cc3cc(-c4cnc([C@@H]5C[C@H]6C[C@H]6N5C(=O)[C@@H](NC(=O)OC)C(C)C)[nH]4)ccc32)[nH]1)C(C)C (single isomer, unassigned) [Compound 755]	2.8 pM						1.9 pM	IC50 [1, 6]: 0.022 nM; IC50 [3, 7]: 0.023 nM; IC50 [4, 8]: 0.341 nM
COC(=O)NC(C(=O)N1CCC[C@H]1c1ncc(-c2ccc3c(c2)cc2n3C(c3ccc(C4CC4)s3)Oc3cc(-c4cnc([C@@H]5CCCN5C(=O)[C@@H](NC(=O)OC)C(C)C)[nH]4)cc(F)c3-2)[nH]1)C1(F)CCOCC1 (single isomer, unassigned) [Compound 364]		0.0869 nM	2 pM	0.0872 nM	0.498 nM	2.3 pM		
